Laboratory results from ChEMBL document CHEMBL4028869, “Synthesis and Bioevaluation of Macrocycle-Polyamine Conjugates as Cell Migration Inhibitors” (J Med Chem, 2017).
Values belong to the compound of their own block, whether it stands above or below them.

What was measured:
[1] = Modulation of ceramide pool in human L3.6p1 cells assessed as N24:1 level per mg protein at 500 nM after 48 hrs (reference value: 0.37 +/- 0.06 nmol); type: functional
[2] = Modulation of sphingomyelin pool in human L3.6p1 cells assessed as N15:0 level per mg protein at 500 nM after 48 hrs (reference value: 0.12 nmol); type: functional
[3] = Modulation of ceramide pool in human L3.6p1 cells assessed as total ceramide level per mg protein at 500 nM after 48 hrs (reference value: 0.62 +/- 0.10 nmol); type: functional
[4] = Modulation of sphingomyelin pool in human L3.6p1 cells assessed as N20:0 level per mg protein at 500 nM after 48 hrs (reference value: 0.06 +/- 0.01 nmol); type: functional
[5] = Modulation of sphingomyelin pool in human L3.6p1 cells assessed as N23:2 level per mg protein at 500 nM after 48 hrs (reference value: 0.01 nmol); type: functional
[6] = Modulation of sphingomyelin pool in human L3.6p1 cells assessed as N24:2 level per mg protein at 500 nM after 48 hrs (reference value: 0.30 +/- 0.01 nmol); type: functional
[7] = Modulation of sphingomyelin pool in human L3.6p1 cells assessed as N23:0 level per mg protein at 500 nM after 48 hrs (reference value: 0.07 nmol); type: functional
Mus musculus [8] = organism: Mus musculus; assay: Increase in SGMS activity in mouse PancO2 cell lysates assessed as induction of NBD-sphingomyelin production at 1 uM using C12-NBD-ceramide substrate after 72 hrs by TLC relative to control
[9] = Modulation of sphingomyelin pool in human L3.6p1 cells assessed as N17:0 level per mg protein at 500 nM after 48 hrs (reference value: 0.05 +/- 0.01 nmol); type: functional
[10] = Modulation of sphingomyelin pool in human L3.6p1 cells assessed as N16:1 level per mg protein at 500 nM after 48 hrs (reference value: 0.28 +/- 0.01 nmol); type: functional
[11] = Modulation of ceramide pool in human L3.6p1 cells assessed as N24:0 level per mg protein at 500 nM after 48 hrs (reference value: 0.16 +/- 0.04 nmol); type: functional
[12] = Modulation of sphingomyelin pool in human L3.6p1 cells assessed as N23:1 level per mg protein at 500 nM after 48 hrs (reference value: 0.10 nmol); type: functional
[13] = Modulation of sphingomyelin pool in human L3.6p1 cells assessed as N18:0 level per mg protein at 500 nM after 48 hrs (reference value: 0.19 +/- 0.01 nmol); type: functional
[14] = Modulation of sphingomyelin pool in human L3.6p1 cells assessed as N22:0 level per mg protein at 500 nM after 48 hrs (reference value: 0.23 +/- 0.01 nmol); type: functional
[15] = Modulation of sphingomyelin pool in human L3.6p1 cells assessed as N26:1 level per mg protein at 500 nM after 48 hrs (reference value: 0.02 nmol); type: functional
[16] = Modulation of sphingomyelin pool in human L3.6p1 cells assessed as total sphingomyelin level per mg protein at 500 nM after 48 hrs (reference value: 5.91 +/- 0.11 nmol); type: functional
[17] = Modulation of sphingomyelin pool in human L3.6p1 cells assessed as N22:1 level per mg protein at 500 nM after 48 hrs (reference value: 0.17 +/- 0.01 nmol); type: functional
[18] = Modulation of sphingomyelin pool in human L3.6p1 cells assessed as N25:1 level per mg protein at 500 nM after 48 hrs (reference value: 0.02 +/- 0.01 nmol); type: functional
[19] = Antimigratory activity against human L3.6p1 cells at 1 uM after 24 hrs in presence of amine oxidase inhibitor aminoguanidine by scratch assay relative to control; type: functional; details: L3.6p1, 24 h
[20] = Modulation of sphingomyelin pool in human L3.6p1 cells assessed as N24:1 level per mg protein at 500 nM after 48 hrs (reference value: 1.07 +/- 0.03 nmol); type: functional
[21] = Modulation of ceramide pool in human L3.6p1 cells assessed as N16:0 level per mg protein at 500 nM after 48 hrs (reference value: 0.08 +/- 0.01 nmol); type: functional
Mus musculus [22] = organism: Mus musculus; assay: Increase in SGMS activity in mouse PancO2 cell lysates assessed as induction of NBD-sphingomyelin production at 0.5 uM using C12-NBD-ceramide substrate after 72 hrs by TLC relative to control
[23] = Selectivity ratio of IC50 for CHO-MG cells to IC50 for PTS in CHO cells; design: species or system Cricetulus griseus
[24] = Modulation of sphingomyelin pool in human L3.6p1 cells assessed as N16:0 level per mg protein at 500 nM after 48 hrs (reference value: 2.60 +/- 0.06 nmol); type: functional
[25] = Modulation of sphingomyelin pool in human L3.6p1 cells assessed as N25:0 level per mg protein at 500 nM after 48 hrs (reference value: 0.01 nmol); type: functional
[26] = Modulation of sphingomyelin pool in human L3.6p1 cells assessed as N19:0 level per mg protein at 500 nM after 48 hrs (reference value: 0.01 nmol); type: functional
[27] = Modulation of sphingomyelin pool in human L3.6p1 cells assessed as N14:0 level per mg protein at 500 nM after 48 hrs (reference value: 0.13 +/- 0.01 nmol); type: functional
[28] = Modulation of sphingomyelin pool in human L3.6p1 cells assessed as N20:1 level per mg protein at 500 nM after 48 hrs (reference value: 0.02 nmol); type: functional
[29] = Modulation of sphingomyelin pool in human L3.6p1 cells assessed as N18:1 level per mg protein at 500 nM after 48 hrs (reference value: 0.07 nmol); type: functional
[30] = Antimigratory activity against human L3.6p1 cells at 0.5 uM after 24 hrs in presence of amine oxidase inhibitor aminoguanidine by scratch assay relative to control; type: functional; details: L3.6p1, 24 h
[31] = Antiproliferative activity against human L3.6p1 cells after 48 hrs in presence of amine oxidase inhibitor aminoguanidine by MTS assay; type: functional, cell-based; details: for IC50: Homo sapiens, L3.6p1, 48 h
[32] = Modulation of sphingomyelin pool in human L3.6p1 cells assessed as N24:0 level per mg protein at 500 nM after 48 hrs (reference value: 0.32 +/- 0.01 nmol); type: functional
[33] = Modulation of sphingomyelin pool in human L3.6p1 cells assessed as N21:0 level per mg protein at 500 nM after 48 hrs (reference value: 0.03 nmol); type: functional
[34] = Modulation of sphingomyelin pool in human L3.6p1 cells assessed as N22:2 level per mg protein at 500 nM after 48 hrs (reference value: 0.01 nmol); type: functional
CHO-MG = assay: Cytotoxicity against CHO-MG cells assessed as reduction in cell viability after 48 hrs in presence of aminoguanidine by MTS assay; type: cell-based; details: Cricetulus griseus
[35] = Substrate activity at PTS in CHO cells assessed as reduction in cell viability after 48 hrs in presence of aminoguanidine by MTS assay; type: cell-based; details: Cricetulus griseus
[36] = Solubility in water; type: physicochemical; details: buffer

Activity (Mus musculus [8]): 75%
Activity (Mus musculus [22]): 89%
SMILES: Cl.Cl.Cl.NCCCNCCCN1CCCCCCCCCCCCCC1
Activity [1]: 0.51 nmol
Activity [2]: 0.14 nmol
Activity [3]: 0.89 nmol
Activity [4]: 0.1 nmol
Activity [5]: 0.01 nmol
Activity [6]: 0.41 nmol
Activity [7]: 0.1 nmol
Activity [9]: 0.06 nmol
Activity [10]: 0.33 nmol
Activity [11]: 0.2 nmol
Activity [12]: 0.14 nmol
Activity [13]: 0.32 nmol
Activity [14]: 0.35 nmol
Activity [15]: 0.04 nmol
Activity [16]: 7.84 nmol
Activity [17]: 0.27 nmol
Activity [18]: 0.03 nmol
inhibition at 1 µM [19]: 39.8%
Activity [20]: 1.49 nmol
Activity [21]: 0.17 nmol
Ratio IC50 [23]: 1
Activity [24]: 3.26 nmol
Activity [25]: 0.03 nmol
Activity [26]: 0.01 nmol
Activity [27]: 0.14 nmol
Activity [28]: 0.03 nmol
Activity [29]: 0.11 nmol
inhibition at 0.5 µM [30]: 20.6%
IC5 [31]: 0.6 µM
IC50 [31]: 990 nM
Activity [32]: 0.39 nmol
Activity [33]: 0.05 nmol
Activity [34]: 0.02 nmol

SMILES: Cl.Cl.Cl.NCCCNCCCNCCC1CCCCCCCCCCCCCC1
IC50 (CHO-MG): 2800 nM
IC50 [35]: 2510 nM
inhibition at 1 µM [19]: 1.5%
Ratio IC50 [23]: 1.1
inhibition at 0.5 µM [30]: -15.5%
IC5 [31]: 1.64 µM
IC50 [31]: 3340 nM

SMILES: NCCNCCN
inhibition at 1 µM [19]: 0%

SMILES: Cl.Cl.NCCNCC1CCCCCCCCCCCCCC1
IC50 (CHO-MG): 2370 nM
IC50 [35]: 2660 nM
inhibition at 1 µM [19]: 26.2%
Ratio IC50 [23]: 0.9
inhibition at 0.5 µM [30]: 6.2%
IC5 [31]: 0.6 µM
IC50 [31]: 1440 nM

SMILES: NCCNCCNCCN [TRIENTINE]
inhibition at 1 µM [19]: 0%

SMILES: Cl.Cl.NCCNCc1c2ccccc2cc2ccccc12
IC50 (CHO-MG): 11300 nM
IC50 [35]: 1960 nM
Ratio IC50 [23]: 5.8
inhibition at 0.5 µM [30]: 6.2%
IC5 [31]: 4.15 µM
IC50 [31]: 24100 nM

SMILES: Cl.Cl.Cl.NCCCCNCCCCNCc1c2ccccc2cc2ccccc12
Ratio IC50 [23]: 148

SMILES: Cl.Cl.Cl.Cl.NCCNCCNCCNCC1CCCCCCCCCCCCCC1
Activity [1]: 0.28 nmol
Activity [2]: 0.12 nmol
Activity [3]: 0.49 nmol
Activity [4]: 0.08 nmol
Activity [5]: 0.01 nmol
Activity [6]: 0.31 nmol
Activity [7]: 0.08 nmol
Activity [9]: 0.05 nmol
Activity [10]: 0.28 nmol
Activity [11]: 0.11 nmol
Activity [12]: 0.11 nmol
Activity [13]: 0.24 nmol
Activity [14]: 0.28 nmol
IC50 (CHO-MG): 2620 nM
IC50 [35]: 2370 nM
Activity [15]: 0.03 nmol
Activity [16]: 6.25 nmol
Activity [17]: 0.19 nmol
Activity [18]: 0.02 nmol
inhibition at 1 µM [19]: 16.8%
Activity [20]: 1.15 nmol
Activity [21]: 0.09 nmol
Ratio IC50 [23]: 1.1
Activity [24]: 2.66 nmol
Activity [25]: 0.02 nmol
Activity [26]: 0.01 nmol
Activity [27]: 0.13 nmol
Activity [28]: 0.02 nmol
Activity [29]: 0.09 nmol
inhibition at 0.5 µM [30]: 6.1%
IC5 [31]: 0.92 µM
IC50 [31]: 1640 nM
Activity [32]: 0.32 nmol
Activity [33]: 0.03 nmol
Activity [34]: 0.02 nmol

solubility [36]: Insoluble
SMILES: OCC1CCCCCCCCCCCCCC1
IC50 (CHO-MG): > 100000 nM
IC50 [35]: > 100000 nM
inhibition at 1 µM [19]: -37.2%
IC5 [31]: 8.4 µM
IC50 [31]: 42000 nM

SMILES: Cl.Cl.Cl.NCCNCCNCC1CCCCCCCCCCCCCC1
IC50 (CHO-MG): 2550 nM
IC50 [35]: 2480 nM
inhibition at 1 µM [19]: 26.8%
Ratio IC50 [23]: 1
inhibition at 0.5 µM [30]: 10.2%
IC5 [31]: 0.6 µM
IC50 [31]: 1250 nM

Activity (Mus musculus [8]): 82%
Activity (Mus musculus [22]): 75%
SMILES: Cl.Cl.Cl.NCCCNCCCNC1CCCCCCCCCCCCCC1
Ratio IC50 [23]: 2.1

Activity (Mus musculus [8]): 97%
Activity (Mus musculus [22]): 88%
SMILES: Cl.Cl.Cl.NCCCNCCCNCC1CCCCCCCCCCCCCC1
Activity [1]: 0.37 nmol
Activity [2]: 0.13 nmol
Activity [3]: 0.63 nmol
Activity [4]: 0.09 nmol
Activity [5]: 0.01 nmol
Activity [6]: 0.36 nmol
Activity [7]: 0.09 nmol
Activity [9]: 0.06 nmol
Activity [10]: 0.3 nmol
Activity [11]: 0.14 nmol
Activity [12]: 0.12 nmol
Activity [13]: 0.27 nmol
Activity [14]: 0.31 nmol
Activity [15]: 0.03 nmol
Activity [16]: 6.79 nmol
Activity [17]: 0.22 nmol
Activity [18]: 0.03 nmol
inhibition at 1 µM [19]: 29.9%
Activity [20]: 1.22 nmol
Activity [21]: 0.11 nmol
Ratio IC50 [23]: 1
Activity [24]: 2.84 nmol
Activity [25]: 0.02 nmol
Activity [26]: 0.01 nmol
Activity [27]: 0.13 nmol
Activity [28]: 0.03 nmol
Activity [29]: 0.1 nmol
inhibition at 0.5 µM [30]: 20.2%
IC5 [31]: 80 µM
IC50 [31]: 89400 nM
Activity [32]: 0.36 nmol
Activity [33]: 0.04 nmol
Activity [34]: 0.02 nmol
